Assay results reported in PubChem BioAssay (NCI).
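The compound was tested at five concentrations on cells cultured in 96-well plates, with a 48-hour exposure period. At the GI50, growth is halved. Definition used: TGI = concentration required for complete inhibition of growth.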

What was measured:
Test in all cases: NCI anticancer screen, dose series, 48 h
IGROV1 ovarian = tested on: IGROV1 ovarian
RPMI-8226 leukemia = tested on: RPMI-8226 leukemia
HL-60(TB) leukemia = tested on: HL-60(TB) leukemia
COLO 205 colon = tested on: COLO 205 colon
HOP-62 NSCLC = tested on: HOP-62 NSCLC
HT29 colon = tested on: HT29 colon
NCI-H226 lung = tested on: NCI-H226 lung
OVCAR-5 ovarian = tested on: OVCAR-5 ovarian
MALME-3M melanoma = tested on: MALME-3M melanoma
U251 CNS = tested on: U251 CNS

Row | Structure (SMILES) | GI50 (IGROV1 ovarian) | TGI (IGROV1 ovarian) | GI50 (RPMI-8226 leukemia) | TGI (RPMI-8226 leukemia) | GI50 (HL-60(TB) leukemia) | TGI (HL-60(TB) leukemia) | GI50 (COLO 205 colon) | TGI (COLO 205 colon) | GI50 (HOP-62 NSCLC) | TGI (HOP-62 NSCLC) | GI50 (HT29 colon) | TGI (HT29 colon) | GI50 (NCI-H226 lung) | TGI (NCI-H226 lung) | GI50 (OVCAR-5 ovarian) | TGI (OVCAR-5 ovarian) | GI50 (MALME-3M melanoma) | TGI (MALME-3M melanoma) | GI50 (U251 CNS) | TGI (U251 CNS)
1 | CN1/C(=C\C=C\C2=[N+](C)c3ccccc3C2(C)C)C(C)(C)c2ccccc21 | 0.116 µM | 1.74 µM | 11.9 nM | 1.33 µM | 0.0271 µM | 0.217 µM | 0.0457 µM | 0.257 µM | 0.258 µM | 7.37 µM | 44.4 nM | 1.49 µM | 0.103 µM | 2.39 µM | 0.37 µM | 15.5 µM | 0.0936 µM | 0.818 µM | 0.0369 µM | 5.21 µM
2 | O=C1CCCCN1CCCCC#Cc1cccc(C#Cc2cccnc2)c1 | 14.7 µM | 43.1 µM | 4640 nM | 28.7 µM | 16.2 µM | 70 µM | 6.88 µM | 21 µM | 15.2 µM | 31.4 µM | 11900 nM | 40 µM | 12.9 µM | 34 µM | 17.7 µM | 41.7 µM | 21.7 µM | 79.1 µM | 7.05 µM | 22 µM
3 | CCCCN(CC)CC(C(C)=O)c1c(O)c2ccccc2oc1=O (stereo not given) | – | > 100 µM | – | > 100 µM | – | > 100 µM | – | > 100 µM | – | > 100 µM | – | > 100 µM | – | > 100 µM | – | > 100 µM | – | > 100 µM | – | > 100 µM
4 | Nc1ccc(/C=C/C(=O)NCc2cc3cc(-c4ccc(C(=O)N5CCC(F)(F)CC5)cc4)cc(-c4ccc(F)cc4)c3o2)cn1 | > 44.7 µM | > 100 µM | 563 nM | > 100 µM | 5.61 µM | > 100 µM | 0.327 µM | > 62.9 µM | > 59.3 µM | > 100 µM | 1890 nM | > 100 µM | > 100 µM | > 100 µM | 8.43 µM | > 100 µM | > 100 µM | > 100 µM | 1.16 µM | > 100 µM
5 | COc1ccc(OC)c(Cn2cc3c(c2-c2ccccc2)CCc2cnoc2-3)c1 | 6.11 µM | > 100 µM | 6540 nM | > 100 µM | 2.03 µM | 6.52 µM | 6.31 µM | > 100 µM | 9.13 µM | > 100 µM | 3150 nM | > 100 µM | 40.8 µM | > 100 µM | 10.8 µM | > 100 µM | 3.7 µM | > 100 µM | 5.38 µM | > 100 µM
6 | O=C(O)c1ccc(C2C(=O)N[C@@H]3CCC[C@H]23)cc1 (stereo not given in full) | – | > 100 µM | – | > 100 µM | – | > 100 µM | – | > 100 µM | – | > 100 µM | – | > 100 µM | – | > 100 µM | – | > 100 µM | – | > 100 µM | – | > 100 µM
7 | O=[N+]([O-])c1ccc(-c2ccc(-c3csc(Nc4ccccc4)n3)o2)cc1 | – | > 63.9 µM | – | > 67.4 µM | – | 13.5 µM | – | 58.2 µM | – | > 100 µM | – | 49.7 µM | – | > 84.1 µM | – | 31.6 µM | – | 32.1 µM | – | 41.5 µM
